Measured values as given in patent publication US20230017045A1, “PYRIDINE AND PYRIMIDINE CARBOXYLATE HERBICIDES AND METHODS OF USE THEREOF” (Dow AgroSciences LLC, priority 2017, published 2023).

The molecules below were run on test plant species (assay: Post-emergent herbicidal activity test (greenhouse, foliar spray, visual growth reduction)). Settings: post-emergence, 336 h, ECHCG: barnyardgrass (Echinochloa crus-galli), 140 g ai/ha, 14 days after application, read-out: Visual Growth Reduction (%) 14 Days After Application, ECHCG.
Assay type: in vivo
Outline: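 Greenhouse plants at first–second true leaf stage sprayed overhead at 187 L/ha with compound in acetone/water/isopropanol/DMSO/crop oil/X-77 carrier; controls received solvent blank. Injury rated visually after 14 d on a 0–100% scale versus untreated and control plants, converted to growth reduction.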
In the case of COC(=O)c1nc(-c2cccc(OC(F)(F)F)c2F)ccc1Cl [F290, Methyl 3-chloro-6-(2-fluoro-3-(trifluoromethoxy)phenyl)picolinate], the pest or weed control at 140 g/ha is reported as 0 to 29%. Molecule O=C(O)c1nc(-c2c(Cl)cc(C(F)(F)F)cc2[N+](=O)[O-])ccc1Cl [F224, 3-Chloro-6-(2-chloro-6-nitro-4-(trifluoromethyl)phenyl)picolinic acid] has a pest or weed control at 140 g/ha of 0 to 29%.

Same assay, conditions: post-emergence, 336 h, IPOHE: ivy-leaf morning glory (Ipomoea hederacea), 140 g ai/ha, 14 days after application, read-out: Visual Growth Reduction (%) 14 Days After Application, IPOHE
COC(=O)c1nc(-c2cccc(OC(F)(F)F)c2F)ccc1Cl [F290, Methyl 3-chloro-6-(2-fluoro-3-(trifluoromethoxy)phenyl)picolinate] gave a pest or weed control at 140 g/ha of 75 to 84%. O=C(O)c1nc(-c2c(Cl)cc(C(F)(F)F)cc2[N+](=O)[O-])ccc1Cl [F224, 3-Chloro-6-(2-chloro-6-nitro-4-(trifluoromethyl)phenyl)picolinic acid] gave a pest or weed control at 140 g/ha of 95 to 100%.

Same assay, conditions: post-emergence, 336 h, KCHSC: kochia (Bassia scoparia), 140 g ai/ha, 14 days after application, read-out: Visual Growth Reduction (%) 14 Days After Application, KCHSC
Molecule COC(=O)c1nc(-c2cccc(OC(F)(F)F)c2F)ccc1Cl [F290, Methyl 3-chloro-6-(2-fluoro-3-(trifluoromethoxy)phenyl)picolinate] has a pest or weed control at 140 g/ha of 0 to 29%. With O=C(O)c1nc(-c2c(Cl)cc(C(F)(F)F)cc2[N+](=O)[O-])ccc1Cl [F224, 3-Chloro-6-(2-chloro-6-nitro-4-(trifluoromethyl)phenyl)picolinic acid] the pest or weed control at 140 g/ha was 45 to 59%.

Same assay, conditions: post-emergence, 336 h, ORYSA: rice (Oryza sativa), 140 g ai/ha, 14 days after application, read-out: Visual Growth Reduction (%) 14 Days After Application, ORYSA
COC(=O)c1nc(-c2cccc(OC(F)(F)F)c2F)ccc1Cl [F290, Methyl 3-chloro-6-(2-fluoro-3-(trifluoromethoxy)phenyl)picolinate] was tested, and the pest or weed control at 140 g/ha was 0 to 29%. O=C(O)c1nc(-c2c(Cl)cc(C(F)(F)F)cc2[N+](=O)[O-])ccc1Cl [F224, 3-Chloro-6-(2-chloro-6-nitro-4-(trifluoromethyl)phenyl)picolinic acid] was tested, and the pest or weed control at 140 g/ha was 45 to 59%.

Same assay, conditions: post-emergence, 336 h, SETFA: giant foxtail (Setaria faberi), 140 g ai/ha, 14 days after application, read-out: Visual Growth Reduction (%) 14 Days After Application, SETFA
Molecule COC(=O)c1nc(-c2cccc(OC(F)(F)F)c2F)ccc1Cl [F290, Methyl 3-chloro-6-(2-fluoro-3-(trifluoromethoxy)phenyl)picolinate] has a pest or weed control at 140 g/ha of 0 to 29%. O=C(O)c1nc(-c2c(Cl)cc(C(F)(F)F)cc2[N+](=O)[O-])ccc1Cl [F224, 3-Chloro-6-(2-chloro-6-nitro-4-(trifluoromethyl)phenyl)picolinic acid] showed a pest or weed control at 140 g/ha of 45 to 59%.

Same assay, conditions: post-emergence, 336 h, SORVU: grain sorghum (Sorghum vulgare), 140 g ai/ha, 14 days after application, read-out: Visual Growth Reduction (%) 14 Days After Application, SORVU
COC(=O)c1nc(-c2cccc(OC(F)(F)F)c2F)ccc1Cl [F290, Methyl 3-chloro-6-(2-fluoro-3-(trifluoromethoxy)phenyl)picolinate] was tested, and the pest or weed control at 140 g/ha was 0 to 29%. In the case of O=C(O)c1nc(-c2c(Cl)cc(C(F)(F)F)cc2[N+](=O)[O-])ccc1Cl [F224, 3-Chloro-6-(2-chloro-6-nitro-4-(trifluoromethyl)phenyl)picolinic acid], the pest or weed control at 140 g/ha is reported as 60 to 74%.

Same assay, conditions: post-emergence, 336 h, STEME: common chickweed (Stellaria media), 140 g ai/ha, 14 days after application, read-out: Visual Growth Reduction (%) 14 Days After Application, STEME
COC(=O)c1nc(-c2cccc(OC(F)(F)F)c2F)ccc1Cl [F290, Methyl 3-chloro-6-(2-fluoro-3-(trifluoromethoxy)phenyl)picolinate] gave a pest or weed control at 140 g/ha of 0 to 29%. O=C(O)c1nc(-c2c(Cl)cc(C(F)(F)F)cc2[N+](=O)[O-])ccc1Cl [F224, 3-Chloro-6-(2-chloro-6-nitro-4-(trifluoromethyl)phenyl)picolinic acid] showed a pest or weed control at 140 g/ha of 0 to 29%.

Same assay, conditions: post-emergence, 336 h, TRZAS: wheat, spring (Triticum aestivum), 140 g ai/ha, 14 days after application, read-out: Visual Growth Reduction (%) 14 Days After Application, TRZAS
COC(=O)c1nc(-c2cccc(OC(F)(F)F)c2F)ccc1Cl [F290, Methyl 3-chloro-6-(2-fluoro-3-(trifluoromethoxy)phenyl)picolinate] showed a pest or weed control at 140 g/ha of 0 to 29%. In the case of O=C(O)c1nc(-c2c(Cl)cc(C(F)(F)F)cc2[N+](=O)[O-])ccc1Cl [F224, 3-Chloro-6-(2-chloro-6-nitro-4-(trifluoromethyl)phenyl)picolinic acid], the pest or weed control at 140 g/ha is reported as 0 to 29%.

Same assay, conditions: post-emergence, 336 h, blackgrass (Alopecurus myosuroides), 14 Days After Application, 140 g ai/ha, read-out: Visual Growth Reduction (%) ALOMY
COC(=O)c1nc(-c2cccc(OC(F)(F)F)c2F)ccc1Cl [F290, Methyl 3-chloro-6-(2-fluoro-3-(trifluoromethoxy)phenyl)picolinate] was tested, and the pest or weed control at 140 g/ha was 0 to 29%. O=C(O)c1nc(-c2c(Cl)cc(C(F)(F)F)cc2[N+](=O)[O-])ccc1Cl [F224, 3-Chloro-6-(2-chloro-6-nitro-4-(trifluoromethyl)phenyl)picolinic acid] was tested, and the pest or weed control at 140 g/ha was 0 to 29%.

Same assay, conditions: post-emergence, 336 h, canada thistle (Cirsium arvense), 14 Days After Application, 140 g ai/ha, read-out: Visual Growth Reduction (%) CIRAR
Work on COC(=O)c1nc(-c2cccc(OC(F)(F)F)c2F)ccc1Cl [F290, Methyl 3-chloro-6-(2-fluoro-3-(trifluoromethoxy)phenyl)picolinate] yielded a pest or weed control at 140 g/ha of 0 to 29%. With O=C(O)c1nc(-c2c(Cl)cc(C(F)(F)F)cc2[N+](=O)[O-])ccc1Cl [F224, 3-Chloro-6-(2-chloro-6-nitro-4-(trifluoromethyl)phenyl)picolinic acid] the pest or weed control at 140 g/ha was 45 to 59%.

Same assay, conditions: post-emergence, 336 h, crabgrass (Digitaria sanguinalis), 14 Days After Application, 140 g ai/ha, read-out: Visual Growth Reduction (%) DIGSA
Molecule COC(=O)c1nc(-c2cccc(OC(F)(F)F)c2F)ccc1Cl [F290, Methyl 3-chloro-6-(2-fluoro-3-(trifluoromethoxy)phenyl)picolinate] has a pest or weed control at 140 g/ha of 0 to 29%. Work on O=C(O)c1nc(-c2c(Cl)cc(C(F)(F)F)cc2[N+](=O)[O-])ccc1Cl [F224, 3-Chloro-6-(2-chloro-6-nitro-4-(trifluoromethyl)phenyl)picolinic acid] yielded a pest or weed control at 140 g/ha of 75 to 84%.

Same assay, conditions: post-emergence, 336 h, lambsquarters (Chenopodium album), 14 Days After Application, 140 g ai/ha, read-out: Visual Growth Reduction (%) CHEAL
COC(=O)c1nc(-c2cccc(OC(F)(F)F)c2F)ccc1Cl [F290, Methyl 3-chloro-6-(2-fluoro-3-(trifluoromethoxy)phenyl)picolinate] showed a pest or weed control at 140 g/ha of 0 to 29%. For O=C(O)c1nc(-c2c(Cl)cc(C(F)(F)F)cc2[N+](=O)[O-])ccc1Cl [F224, 3-Chloro-6-(2-chloro-6-nitro-4-(trifluoromethyl)phenyl)picolinic acid], the pest or weed control at 140 g/ha was 95 to 100%.

Same assay, conditions: post-emergence, 336 h, redroot pigweed (Amaranthus retroflexus), 14 Days After Application, 140 g ai/ha, read-out: Visual Growth Reduction (%) AMARE
Molecule COC(=O)c1nc(-c2cccc(OC(F)(F)F)c2F)ccc1Cl [F290, Methyl 3-chloro-6-(2-fluoro-3-(trifluoromethoxy)phenyl)picolinate] has a pest or weed control at 140 g/ha of 0 to 29%. For O=C(O)c1nc(-c2c(Cl)cc(C(F)(F)F)cc2[N+](=O)[O-])ccc1Cl [F224, 3-Chloro-6-(2-chloro-6-nitro-4-(trifluoromethyl)phenyl)picolinic acid], the pest or weed control at 140 g/ha was 85 to 94%.

Same assay, conditions: post-emergence, 336 h, wild oat (Avena fatua), 14 Days After Application, 140 g ai/ha, read-out: Visual Growth Reduction (%) AVEFA
COC(=O)c1nc(-c2cccc(OC(F)(F)F)c2F)ccc1Cl [F290, Methyl 3-chloro-6-(2-fluoro-3-(trifluoromethoxy)phenyl)picolinate] gave a pest or weed control at 140 g/ha of 0 to 29%. For O=C(O)c1nc(-c2c(Cl)cc(C(F)(F)F)cc2[N+](=O)[O-])ccc1Cl [F224, 3-Chloro-6-(2-chloro-6-nitro-4-(trifluoromethyl)phenyl)picolinic acid], the pest or weed control at 140 g/ha was 0 to 29%.

Same assay, conditions: post-emergence, 336 h, yellow nutsedge (Cyperus esculentus), 14 Days After Application, 140 g ai/ha, read-out: Visual Growth Reduction (%) CYPES
In the case of COC(=O)c1nc(-c2cccc(OC(F)(F)F)c2F)ccc1Cl [F290, Methyl 3-chloro-6-(2-fluoro-3-(trifluoromethoxy)phenyl)picolinate], the pest or weed control at 140 g/ha is reported as 60 to 74%. O=C(O)c1nc(-c2c(Cl)cc(C(F)(F)F)cc2[N+](=O)[O-])ccc1Cl [F224, 3-Chloro-6-(2-chloro-6-nitro-4-(trifluoromethyl)phenyl)picolinic acid] gave a pest or weed control at 140 g/ha of 0 to 29%.
